According to patent US20100160266A1, “ORGANIC COMPOUNDS” (NABRIVA TH[…], priority 2005, published 2010):

Test system: anaerobic bacteria
Assay: in vitro acne assays: MIC by agar dilution technique on Wilkins-Chalgren Agar (NCCLS guidelines)
Type: cell-based
Conditions: compared with the same pleuromutilin in the form of a hydrochloride
Procedure: E.g. in commercially available in vitro acne assays (the determination of the minimal inhibitory concentration (MIC) is performed according to the approved NCCLS guidelines^1) by agar dilution technique on Wilkins-Chalgren Agar—1) National committee for clinical laboratory standards. Methods for Antimicrobial susceptibility testing of anaerobic bacteria. 1993.

C=CC1(C)CC(OC(=O)CSC2CCCN(C(=O)C(N)C(C)C)C2)C2(C)C(C)CCC3(CCC(=O)C32)C(C)C1O [Example 1, 14-O—[(N—((R)-Valyl)-piperidine-3(S)-yl)-sulfanylacetyl)-mutilin]
activity in in vitro acne assays (minimal inhibitory concentration, MIC): remarkably better activity
